Test results reported in patent US11917959B2, “Multi-ear system to enhance monocot plant yield” (Monsanto Technology LLC, priority 2015, dated 2024).

Tested on: diploid maize plant
Test: Multibud induction in vitro, embryo axis method (Example 8)
Type: in vivo
Method: Seeds of a diploid maize plant were surface sterilized comprising immersion using standard methods of the art and then germinated in vitro in growth media. One of the resulting seedlings was dissected from its seed two days after germination (embryo axis method). The dissected axis was then subjected to a multibud induction treatment comprising transfer to fresh multibud induction media containing cytokinin in the form of 10 mg/L BAP. After seven days in the multibud bud induction media, the treated seedlings were transferred back to a hormone-free regeneration media. […] These multibuds were dissected from the mother plant and transferred to rooting media comprising IBA and IAA. After approximately one week, the multibud-derived plants were transplanted into 10 inch pots and allowed to grow in a greenhouse until it was clear that each autonomously-growing multibud-derived shoot had formed ears and tassels that nicked. Each ear was then pollinated from the tassel growing in the same pot and then all plants were allowed to grow in greenhouse conditions until seed set.

c1ccc(CNc2ncnc3nc[nH]c23)cc1 [BAP, 6-Benzylaminopurine, N-(Phenylmethyl)-7H-pruin-6-amine]
seed borne by ears of multibud-derived plants (10 mg/L BAP): dozens of seed each
multibud formation (10 mg/L BAP for seven days, after approximately twenty days): induced multibuds could be seen growing from the nodal regions of the stem
